Patent publication US7074789B2, “Kinase inhibitors” (Amgen Inc., priority 1999, dated 2006)
pIC50: −log10 of the molar value. Like-named read-outs stand apart in the source and are kept apart here.

Key:
Type in all cases: biochemical
Tek = molecular target: T1, Tek (Homo sapiens, UniProt Q02763); experiment: Kinase inhibition assay (33P transfer), Tek; conditions: read-out: Tek-1
T1 construct: Kinases are expressed as either kinase domains or full length constructs; made in house
Procedure, shortened: (§1)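 Kinase domains or full-length enzymes, GST- or polyHis-tagged, were expressed in E. coli or baculovirus High Five cells and affinity-purified. Transfer of 33PO4 from ATP onto plate-bound poly(Glu,Tyr) 4:1 or poly(Arg,Ser) 3:1 was counted by liquid scintillation after a 0.5% phosphoric acid wash. IC50 = concentration halving incorporation.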

ErbB4 = molecular target: T2, ErbB4 (Homo sapiens, UniProt Q15303); experiment: Kinase inhibition assay (33P transfer), ErbB4; conditions: read-out: ErbB4-1
T2 construct: Kinases are expressed as either kinase domains or full length constructs; made in house

c-Met = molecular target: T3, c-Met (Homo sapiens, UniProt P08581); experiment: Kinase inhibition assay (33P transfer), c-Met; conditions: read-out: Met-1
T3 construct: Kinases are expressed as either kinase domains or full length constructs; made in house
Procedure, shortened: as §1

EPHB4 = molecular target: T4, EPHB4 (Homo sapiens, UniProt P54760); experiment: Kinase inhibition assay (33P transfer), EPHB4; conditions: read-out: EPHB4-1
T4 construct: Kinases are expressed as either kinase domains or full length constructs; made in house
T4 sequence (P54760 16-987): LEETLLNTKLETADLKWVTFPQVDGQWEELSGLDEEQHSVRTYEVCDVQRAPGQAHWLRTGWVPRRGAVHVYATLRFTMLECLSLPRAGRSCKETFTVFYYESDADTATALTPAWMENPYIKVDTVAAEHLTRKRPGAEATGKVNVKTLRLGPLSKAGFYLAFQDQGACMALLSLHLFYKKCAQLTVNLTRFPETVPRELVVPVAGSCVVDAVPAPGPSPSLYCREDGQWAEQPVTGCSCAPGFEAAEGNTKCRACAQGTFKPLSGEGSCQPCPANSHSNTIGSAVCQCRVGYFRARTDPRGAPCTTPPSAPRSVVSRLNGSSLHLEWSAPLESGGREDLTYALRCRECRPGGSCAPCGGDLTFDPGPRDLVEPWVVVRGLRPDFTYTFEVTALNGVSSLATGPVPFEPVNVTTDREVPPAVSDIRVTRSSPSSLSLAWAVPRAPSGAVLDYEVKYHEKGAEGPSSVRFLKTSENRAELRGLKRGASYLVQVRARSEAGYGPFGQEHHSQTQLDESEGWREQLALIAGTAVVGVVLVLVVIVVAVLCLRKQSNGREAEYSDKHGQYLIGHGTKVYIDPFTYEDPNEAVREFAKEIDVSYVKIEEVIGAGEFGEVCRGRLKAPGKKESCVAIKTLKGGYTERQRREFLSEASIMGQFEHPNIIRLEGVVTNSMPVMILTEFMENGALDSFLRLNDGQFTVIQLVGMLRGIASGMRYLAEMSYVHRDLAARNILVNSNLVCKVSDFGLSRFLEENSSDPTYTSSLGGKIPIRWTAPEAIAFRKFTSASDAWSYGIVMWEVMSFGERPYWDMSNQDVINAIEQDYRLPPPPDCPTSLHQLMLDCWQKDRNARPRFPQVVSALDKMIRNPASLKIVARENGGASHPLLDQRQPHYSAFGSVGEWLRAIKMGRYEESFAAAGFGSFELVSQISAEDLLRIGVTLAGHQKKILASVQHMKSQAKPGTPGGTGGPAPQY

AKT = molecular target: T5, AKT (Homo sapiens, UniProt Q9Y243); experiment: Kinase inhibition assay (33P transfer), AKT; conditions: read-out: AKT3-1
T5 construct: Kinases are expressed as either kinase domains or full length constructs; made in house
Procedure, shortened: (§2)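 Enzyme activity is taken as the amount of 33PO4 moved from ATP onto poly(Glu, Tyr) 4:1 or poly(Arg, Ser) 3:1 fixed to the plate surface. Unbound label is removed with 0.5% phosphoric acid before scintillation counting.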

IGFR-1 [1] = molecular target: T6, IGFR-1 (Homo sapiens, UniProt P08069); experiment: Kinase inhibition assay (33P transfer), IGFR-1; conditions: Table 2, kinase inhibition class
T6 construct: Kinases are expressed as either kinase domains or full length constructs; made in house

EGFR = molecular target: T7, EGFR (Homo sapiens, UniProt P00533); experiment: Kinase inhibition assay (33P transfer), EGFR; conditions: read-out: EGFR-1
T7 construct: Kinases are expressed as either kinase domains or full length constructs; made in house
Procedure, shortened: as §1

Lck = molecular target: T8, Lck (Homo sapiens, UniProt P06239); experiment: Kinase inhibition assay (33P transfer), Lck; conditions: read-out: Lck-1
T8 construct: Kinases are expressed as either kinase domains or full length constructs; made in house
Procedure, shortened: as §2

Zap-70 = molecular target: T9, Zap-70 (Homo sapiens, UniProt P43403); experiment: Kinase inhibition assay (33P transfer), Zap-70; conditions: read-out: Zap-1
T9 construct: Kinases are expressed as either kinase domains or full length constructs; made in house
T9 sequence (P43403 1-619): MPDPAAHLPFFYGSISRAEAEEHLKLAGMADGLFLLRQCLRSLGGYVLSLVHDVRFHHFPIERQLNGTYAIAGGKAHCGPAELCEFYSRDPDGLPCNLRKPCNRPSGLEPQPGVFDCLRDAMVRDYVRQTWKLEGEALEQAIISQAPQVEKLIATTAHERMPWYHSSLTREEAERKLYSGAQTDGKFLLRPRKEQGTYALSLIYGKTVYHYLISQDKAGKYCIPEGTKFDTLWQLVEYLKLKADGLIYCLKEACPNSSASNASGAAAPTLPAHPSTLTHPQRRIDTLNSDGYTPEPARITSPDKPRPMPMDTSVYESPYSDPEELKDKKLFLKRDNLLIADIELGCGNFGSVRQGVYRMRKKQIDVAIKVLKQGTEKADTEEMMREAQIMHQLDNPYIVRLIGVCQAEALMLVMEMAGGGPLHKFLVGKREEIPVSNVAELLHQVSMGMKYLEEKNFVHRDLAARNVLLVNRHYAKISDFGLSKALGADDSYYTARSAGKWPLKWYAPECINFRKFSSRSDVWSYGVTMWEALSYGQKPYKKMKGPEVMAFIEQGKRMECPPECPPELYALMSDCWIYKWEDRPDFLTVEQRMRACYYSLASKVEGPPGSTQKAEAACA
Procedure, shortened: as §2

Itk = molecular target: T10, Itk (Homo sapiens, UniProt Q08881); experiment: Kinase inhibition assay (33P transfer), Itk; conditions: read-out: Itk-1
T10 construct: Kinases are expressed as either kinase domains or full length constructs; made in house
T10 sequence (Q08881 1-620): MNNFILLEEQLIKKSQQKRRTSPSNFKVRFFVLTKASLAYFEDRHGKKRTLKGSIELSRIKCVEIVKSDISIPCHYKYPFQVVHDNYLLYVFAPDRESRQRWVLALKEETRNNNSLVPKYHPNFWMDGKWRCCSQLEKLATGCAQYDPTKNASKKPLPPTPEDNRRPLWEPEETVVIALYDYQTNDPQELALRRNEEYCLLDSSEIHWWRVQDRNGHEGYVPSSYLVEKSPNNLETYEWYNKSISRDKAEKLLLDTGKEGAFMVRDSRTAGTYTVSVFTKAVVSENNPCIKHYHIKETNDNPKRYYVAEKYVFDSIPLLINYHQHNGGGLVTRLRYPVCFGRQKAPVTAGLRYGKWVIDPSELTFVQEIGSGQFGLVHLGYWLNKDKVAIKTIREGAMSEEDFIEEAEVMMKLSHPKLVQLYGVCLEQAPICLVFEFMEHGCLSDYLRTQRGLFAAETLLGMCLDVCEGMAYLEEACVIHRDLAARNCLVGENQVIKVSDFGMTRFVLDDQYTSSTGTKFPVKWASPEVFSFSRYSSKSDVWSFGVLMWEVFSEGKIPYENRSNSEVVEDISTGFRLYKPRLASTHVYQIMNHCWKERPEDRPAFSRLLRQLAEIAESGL
Procedure, shortened: as §1

Kdr = molecular target: T11, Kdr (Homo sapiens, UniProt P35968); experiment: Kinase inhibition assay (33P transfer), Kdr; conditions: read-out: KDR-1
T11 construct: Kinases are expressed as either kinase domains or full length constructs; made in house
Procedure, shortened: as §2

IGFR-1 [2] = molecular target: T6, IGFR-1; experiment: Kinase inhibition assay (33P transfer), IGFR-1; conditions: Table 2, class symbols A-E
[3] = Table 2, kinase inhibition class

T5 sequence (Q9Y243 whole entry, the tested form may be a part): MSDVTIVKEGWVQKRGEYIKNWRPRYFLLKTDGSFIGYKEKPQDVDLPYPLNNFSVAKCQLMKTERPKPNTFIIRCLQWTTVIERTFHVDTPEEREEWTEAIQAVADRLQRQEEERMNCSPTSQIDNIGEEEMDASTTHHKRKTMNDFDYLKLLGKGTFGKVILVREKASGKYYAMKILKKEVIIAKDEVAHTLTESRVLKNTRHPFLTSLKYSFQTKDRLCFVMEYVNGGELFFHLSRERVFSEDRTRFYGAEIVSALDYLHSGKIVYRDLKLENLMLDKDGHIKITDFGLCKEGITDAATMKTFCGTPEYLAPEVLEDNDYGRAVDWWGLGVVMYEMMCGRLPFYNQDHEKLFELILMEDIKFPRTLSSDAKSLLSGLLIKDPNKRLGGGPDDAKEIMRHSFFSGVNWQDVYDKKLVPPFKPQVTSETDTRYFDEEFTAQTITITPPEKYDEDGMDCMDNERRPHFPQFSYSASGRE
T7 sequence (P00533 25-1210, species assumed): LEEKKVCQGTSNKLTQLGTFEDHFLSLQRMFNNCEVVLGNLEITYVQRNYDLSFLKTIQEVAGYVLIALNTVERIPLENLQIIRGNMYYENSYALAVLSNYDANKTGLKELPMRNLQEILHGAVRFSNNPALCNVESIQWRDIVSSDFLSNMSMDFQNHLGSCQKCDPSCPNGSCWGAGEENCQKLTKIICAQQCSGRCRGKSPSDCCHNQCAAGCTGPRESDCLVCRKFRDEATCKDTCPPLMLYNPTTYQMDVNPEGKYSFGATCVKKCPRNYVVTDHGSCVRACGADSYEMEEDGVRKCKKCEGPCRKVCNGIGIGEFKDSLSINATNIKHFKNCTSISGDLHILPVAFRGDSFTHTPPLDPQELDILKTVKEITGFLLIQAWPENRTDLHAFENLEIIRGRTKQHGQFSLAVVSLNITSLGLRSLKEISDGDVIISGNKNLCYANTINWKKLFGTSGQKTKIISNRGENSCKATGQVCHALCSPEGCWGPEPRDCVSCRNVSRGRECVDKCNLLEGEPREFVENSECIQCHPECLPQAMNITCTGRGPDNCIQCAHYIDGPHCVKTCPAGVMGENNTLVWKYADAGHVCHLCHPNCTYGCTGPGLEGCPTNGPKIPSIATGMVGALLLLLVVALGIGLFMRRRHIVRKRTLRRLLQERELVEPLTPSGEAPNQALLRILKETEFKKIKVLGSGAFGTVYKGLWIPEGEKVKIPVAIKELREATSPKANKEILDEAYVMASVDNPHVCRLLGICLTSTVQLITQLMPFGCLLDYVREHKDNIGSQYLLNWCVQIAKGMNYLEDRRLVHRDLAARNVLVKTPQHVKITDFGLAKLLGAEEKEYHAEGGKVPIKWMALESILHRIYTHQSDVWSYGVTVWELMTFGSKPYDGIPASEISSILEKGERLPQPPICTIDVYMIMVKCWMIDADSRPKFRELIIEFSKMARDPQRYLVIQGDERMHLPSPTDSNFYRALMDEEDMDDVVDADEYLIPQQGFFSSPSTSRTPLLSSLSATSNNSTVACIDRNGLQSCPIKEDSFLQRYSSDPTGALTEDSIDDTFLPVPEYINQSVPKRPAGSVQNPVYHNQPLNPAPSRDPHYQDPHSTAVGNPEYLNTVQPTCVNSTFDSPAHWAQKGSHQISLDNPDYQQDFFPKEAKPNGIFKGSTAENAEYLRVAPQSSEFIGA
T3 sequence (P08581 25-1390): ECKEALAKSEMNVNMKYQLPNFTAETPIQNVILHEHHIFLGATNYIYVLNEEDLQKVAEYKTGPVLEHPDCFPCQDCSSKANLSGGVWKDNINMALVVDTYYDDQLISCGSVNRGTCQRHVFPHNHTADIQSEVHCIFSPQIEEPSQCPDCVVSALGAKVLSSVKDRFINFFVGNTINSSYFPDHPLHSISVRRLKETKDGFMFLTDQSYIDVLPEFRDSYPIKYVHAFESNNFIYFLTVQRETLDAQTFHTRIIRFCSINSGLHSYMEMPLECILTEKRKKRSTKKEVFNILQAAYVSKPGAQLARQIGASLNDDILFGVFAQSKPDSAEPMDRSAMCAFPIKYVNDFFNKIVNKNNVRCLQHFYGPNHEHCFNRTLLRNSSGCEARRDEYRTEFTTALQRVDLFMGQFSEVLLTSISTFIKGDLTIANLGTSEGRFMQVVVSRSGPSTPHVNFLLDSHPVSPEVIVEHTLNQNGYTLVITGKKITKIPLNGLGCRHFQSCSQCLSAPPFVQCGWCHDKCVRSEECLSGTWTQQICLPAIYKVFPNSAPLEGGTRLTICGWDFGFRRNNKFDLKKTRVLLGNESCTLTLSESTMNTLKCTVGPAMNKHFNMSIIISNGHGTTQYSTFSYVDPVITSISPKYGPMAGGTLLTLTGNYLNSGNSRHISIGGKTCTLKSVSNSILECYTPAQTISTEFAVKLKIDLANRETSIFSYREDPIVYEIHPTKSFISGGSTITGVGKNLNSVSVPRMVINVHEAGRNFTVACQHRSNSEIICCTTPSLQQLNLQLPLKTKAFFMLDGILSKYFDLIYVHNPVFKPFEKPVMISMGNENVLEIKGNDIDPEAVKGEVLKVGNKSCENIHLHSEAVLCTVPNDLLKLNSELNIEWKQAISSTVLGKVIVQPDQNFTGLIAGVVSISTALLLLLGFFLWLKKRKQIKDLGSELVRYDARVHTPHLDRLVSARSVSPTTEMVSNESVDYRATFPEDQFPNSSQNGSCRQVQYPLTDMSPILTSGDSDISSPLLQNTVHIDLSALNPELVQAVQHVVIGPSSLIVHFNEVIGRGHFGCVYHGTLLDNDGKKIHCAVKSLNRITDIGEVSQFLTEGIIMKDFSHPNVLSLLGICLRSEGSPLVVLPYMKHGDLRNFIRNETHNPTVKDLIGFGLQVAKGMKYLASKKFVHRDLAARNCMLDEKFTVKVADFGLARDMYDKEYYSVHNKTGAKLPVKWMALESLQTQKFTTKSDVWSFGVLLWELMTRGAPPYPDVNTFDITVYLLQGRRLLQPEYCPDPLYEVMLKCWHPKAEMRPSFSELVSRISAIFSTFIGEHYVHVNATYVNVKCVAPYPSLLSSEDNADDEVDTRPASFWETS
T6 sequence (P08069 31-1367): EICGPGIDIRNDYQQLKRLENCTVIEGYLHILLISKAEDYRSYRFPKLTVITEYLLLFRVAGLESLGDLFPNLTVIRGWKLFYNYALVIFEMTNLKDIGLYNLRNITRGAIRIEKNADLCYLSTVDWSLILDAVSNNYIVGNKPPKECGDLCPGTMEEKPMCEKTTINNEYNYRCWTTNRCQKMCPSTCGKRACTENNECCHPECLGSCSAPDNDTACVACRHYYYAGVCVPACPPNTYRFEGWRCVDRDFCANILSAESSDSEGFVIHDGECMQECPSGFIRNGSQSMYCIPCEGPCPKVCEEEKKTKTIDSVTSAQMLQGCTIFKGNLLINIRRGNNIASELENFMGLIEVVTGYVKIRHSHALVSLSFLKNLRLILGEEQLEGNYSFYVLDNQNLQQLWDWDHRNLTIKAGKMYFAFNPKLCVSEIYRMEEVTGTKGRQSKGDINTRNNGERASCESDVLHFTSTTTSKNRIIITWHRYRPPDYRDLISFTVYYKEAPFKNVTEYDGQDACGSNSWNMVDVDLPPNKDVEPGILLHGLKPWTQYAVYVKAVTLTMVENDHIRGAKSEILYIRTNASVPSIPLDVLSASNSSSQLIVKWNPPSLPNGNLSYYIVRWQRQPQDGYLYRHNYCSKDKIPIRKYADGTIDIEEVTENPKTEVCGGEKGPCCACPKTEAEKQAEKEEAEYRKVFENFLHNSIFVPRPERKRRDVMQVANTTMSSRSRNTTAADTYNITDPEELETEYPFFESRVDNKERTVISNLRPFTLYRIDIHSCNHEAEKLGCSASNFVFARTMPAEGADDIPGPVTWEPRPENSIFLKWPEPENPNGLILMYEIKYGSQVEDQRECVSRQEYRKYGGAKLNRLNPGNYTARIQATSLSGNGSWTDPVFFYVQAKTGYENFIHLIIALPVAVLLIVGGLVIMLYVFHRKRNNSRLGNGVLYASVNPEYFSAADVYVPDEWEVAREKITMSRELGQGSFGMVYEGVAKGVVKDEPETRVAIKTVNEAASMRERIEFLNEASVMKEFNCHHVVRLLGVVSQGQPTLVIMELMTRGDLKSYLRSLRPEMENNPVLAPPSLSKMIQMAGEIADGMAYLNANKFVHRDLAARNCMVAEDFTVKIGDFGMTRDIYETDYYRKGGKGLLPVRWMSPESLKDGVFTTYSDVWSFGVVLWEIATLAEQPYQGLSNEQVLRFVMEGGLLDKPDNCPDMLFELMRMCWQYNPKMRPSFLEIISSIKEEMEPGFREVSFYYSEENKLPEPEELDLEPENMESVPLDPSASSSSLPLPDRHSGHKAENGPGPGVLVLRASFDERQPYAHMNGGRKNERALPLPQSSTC
T8 sequence (P06239 whole entry, species assumed, the tested form may be a part): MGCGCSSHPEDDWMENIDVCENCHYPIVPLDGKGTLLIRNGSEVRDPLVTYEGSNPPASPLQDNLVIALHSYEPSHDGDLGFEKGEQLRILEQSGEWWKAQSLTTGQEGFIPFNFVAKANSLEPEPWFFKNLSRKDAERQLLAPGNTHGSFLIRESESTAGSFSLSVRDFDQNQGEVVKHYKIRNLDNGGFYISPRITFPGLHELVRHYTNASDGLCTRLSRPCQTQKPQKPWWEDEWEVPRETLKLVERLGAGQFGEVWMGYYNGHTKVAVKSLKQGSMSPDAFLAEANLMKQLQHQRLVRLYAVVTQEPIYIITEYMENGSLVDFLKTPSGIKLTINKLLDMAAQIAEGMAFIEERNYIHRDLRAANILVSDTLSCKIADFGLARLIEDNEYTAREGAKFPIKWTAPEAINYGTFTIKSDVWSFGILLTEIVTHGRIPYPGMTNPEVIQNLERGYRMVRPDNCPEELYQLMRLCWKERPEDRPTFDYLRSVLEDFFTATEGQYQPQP

| pIC50 (Tek) | pIC50 (ErbB4) | pIC50 (c-Met; [3]) | pIC50 (EPHB4) | pIC50 (AKT; [3]) | pIC50 (IGFR-1 [1]) | pIC50 (EGFR; [3]) | pIC50 (Lck; Table 3) | pIC50 (Zap-70; Table 3) | pIC50 (Itk; Table 3) | pIC50 (Kdr; Table 3) | pIC50 (c-Met; Table 2, class symbols A-E) | pIC50 (AKT; Table 2, class symbols A-E) | pIC50 (EGFR; Table 2, class symbols A-E) | pIC50 (Lck; Table 3, class symbols) | pIC50 (Zap-70; Table 3, class symbols) | pIC50 (IGFR-1 [2]) | pIC50 (Itk; Table 3, class symbols) | pIC50 (Kdr; Table 3, class symbols) | SMILES |
| --- | --- | --- | --- | --- | --- | --- | --- | --- | --- | --- | --- | --- | --- | --- | --- | --- | --- | --- | --- |
| < 4.99 | 5.26 to 6.04 | < 4.99 | < 4.99 | < 4.99 | > 6.04 | > 6.04 | 5.26 to 6.04 | < 4.99 | < 4.99 | 5.10 to 5.26 | – | – | – | – | – | – | – | – | COc1cc(Nc2ncnc(Nc3cccc(OC(F)(F)F)c3)n2)cc(OC)c1OC [Compound 250] |
| – | – | – | – | – | – | – | – | – | – | – | < 4.92 | < 4.92 | < 4.92 | < 4.92 | < 4.92 | < 4.92 | < 4.92 | < 4.92 | Cc1ccc2c(c1)CCCN2c1ncnc(NCc2ccc(C(=O)O)cc2)n1 [Compound 853] |

Further lines, the compound ahead of its results:

| SMILES | pIC50 (Tek) | pIC50 (ErbB4) | pIC50 (c-Met; [3]) | pIC50 (EPHB4) | pIC50 (AKT; [3]) | pIC50 (IGFR-1 [1]) | pIC50 (EGFR; [3]) | pIC50 (Lck; Table 3) | pIC50 (Zap-70; Table 3) | pIC50 (Itk; Table 3) | pIC50 (Kdr; Table 3) | pIC50 (c-Met; Table 2, class symbols A-E) | pIC50 (AKT; Table 2, class symbols A-E) | pIC50 (EGFR; Table 2, class symbols A-E) | pIC50 (Lck; Table 3, class symbols) | pIC50 (Zap-70; Table 3, class symbols) | pIC50 (IGFR-1 [2]) | pIC50 (Itk; Table 3, class symbols) | pIC50 (Kdr; Table 3, class symbols) |
| --- | --- | --- | --- | --- | --- | --- | --- | --- | --- | --- | --- | --- | --- | --- | --- | --- | --- | --- | --- |
| Oc1cccc(Nc2ncnc(Nc3ccc(OCc4ccccc4)cc3)n2)c1 [Compound 159] | 5.04 to 5.21 | < 4.93 | 5.21 to 5.98 | 5.04 to 5.21 | 5.21 to 5.98 | 4.93 to 5.04 | > 5.98 | < 4.93 | 5.04 to 5.21 | < 4.93 | 5.04 to 5.21 | – | – | – | – | – | – | – | – |
| COc1ccc(Nc2ncnc(Nc3ccc(OCc4ccccc4)cc3)n2)cc1O [Compound 171] | < 4.97 | < 4.97 | < 4.97 | 5.07 to 5.24 | 5.24 to 6.02 | < 4.97 | > 6.02 | < 4.97 | < 4.97 | < 4.97 | < 4.97 | – | – | – | – | – | – | – | – |
| Cc1ccc2c(c1)CCCN2c1ncnc(Nc2c(C)ccc3ccccc23)n1 [Compound 854] | – | – | – | – | – | – | – | – | – | – | – | < 4.93 | < 4.93 | 5.20 to 5.98 | < 4.93 | < 4.93 | < 4.93 | < 4.93 | < 4.93 |
| COc1ccc2[nH]cc(CCNc3ncnc(Nc4ccc(OC)c(OC)c4)n3)c2c1 [Compound 855] | – | – | – | – | – | – | – | – | – | – | – | < 4.97 | < 4.97 | < 4.97 | < 4.97 | < 4.97 | < 4.97 | < 4.97 | < 4.97 |
